The values that follow come from patent publication US20200131669A1, “CYCLIC PEPTIDE COMPOUND HAVING HIGH MEMBRANE PERMEABILITY, AND LIBRARY CONTAINING SAME” (Chugai Seiyaku Kabushiki Kaisha, priority 2017, published 2020).

Molecules are shown by their SMILES. Positions of bridges follow the written chain, without caps; N, C: chain ends. Non-standard residues stand in square brackets, D forms with d. Residues, ends and D or L forms follow the SMILES beside them. ξ: configuration not given here. *: point of attachment. Glu(NHSO2Me) = CS(=O)(=O)NC(=O)CC[C@H](N)C(=O)O; NMePhe(3-Cl) = CN[C@@H](Cc1cccc(Cl)c1)C(=O)O; hhPhe = N[C@@H](CCCc1ccccc1)C(=O)O; NMeF = CN[C@@H](Cc1ccccc1)C(=O)O; ξThr(3R) = C[C@@H](O)C(N)C(=O)O; NMeL = CN[C@@H](CC(C)C)C(=O)O; Propyl(2R-OH) = C[C@@H](O)C*; NMeV = CN[C@H](C(=O)O)C(C)C; NMeA = CN[C@@H](C)C(=O)O; Piperidide = C1CCN(*)CC1; CH2CMe2OH = CC(C)(O)C*; NBuGly = CCCCNCC(=O)O; NPrGly = CCCNCC(=O)O; Sar = CNCC(=O)O; tBu = CC(C)(C)* A value given as a limit tells only on which side of the number the result lay.

The nature of one data set: Caco-2 membrane permeability, improved method as used in the following Examples (96-well, 20 to 24 h preincubation). The format is in vitro ADME. The conditions noted are these: human, Caco-2, Caco-2. An outline of the steps: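 Caco-2 monolayers were grown three weeks and preincubated 20–24 h at 37 °C with compound in DMEM+FaSSIF (1% DMSO) apically. The assay then used compound in FaSSIF/HBSS (1% DMSO, pH 6.0) apically and HBSS with 4% BSA (pH 7.4) basally. Basal samples were taken at 180 min for LC/MS, and Papp (cm/sec) was calculated.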
(In general: Passage across Caco-2 layers is used to estimate intestinal permeability.)
A word on the Papp A→B: it is the apparent permeability from the apical to the basolateral side of a cell layer. A lower Papp A→B goes with slow passage. Take `CCCCN1CC(=O)N(C)[C@@H](CC(C)C)C(=O)N[C@@H](CC(C)C)C(=O)N(C)[C@@H](Cc2ccccc2)C(=O)N(C)[C@@H](C(C)C)C(=O)N[C@H](C(=O)N2CCCCC2)CC(=O)N[C@H](CC(C)C)C(=O)N(C)[C@@H](Cc2cccc(Cl)c2)C(=O)N[C@@H](CCC(=O)NS(C)(=O)=O)C(=O)N(C)[C@@H](CC(C)C)C(=O)NC([C@@H](C)O)C1=O` (stereo partly drawn) [pd59] ([dL][NMePhe(3-Cl)][Glu(NHSO2Me)][NMeL][ξThr(3R)][NBuGly][NMeL]L[NMeF][NMeV]D-Piperidide; lactam N-11): the Papp A→B at 180 min is below 0.0088 ×10⁻⁶ cm/s.
Turning to `CC[C@H](C)[C@@H]1NC(=O)[C@H](Cc2ccccc2)N(C)C(=O)CN(C)C(=O)C[C@@H](C(=O)N2CCCCC2)NC(=O)[C@H](C)N(C)C(=O)[C@H](CCCc2ccccc2)NC(=O)[C@H](CC(C)C)N(C)C(=O)[C@H](Cc2ccccc2)N(C)C(=O)CN(C)C(=O)[C@H]([C@@H](C)O)NC(=O)[C@H](CC(C)C)N(C)C1=O` [pd367] ([Sar][NMeF]I[NMeL]T[Sar][NMeF][NMeL][hhPhe][NMeA]D-Piperidide; lactam N-11), the apical-to-basolateral permeability (Papp A→B) at 180 min stood at 1.5 ×10⁻⁶ cm/s.
Same read-out and setting: for `CCCN1CC(=O)N(C)[C@@H](Cc2cccc(Cl)c2)C(=O)N(C)[C@@H](CC(C)C)C(=O)N[C@@H](COC(C)(C)C)C(=O)N(C)[C@@H](CC(C)C)C(=O)N[C@H](C(=O)N2CCCCC2)CC(=O)N(C)CC(=O)N(C)[C@@H](Cc2ccccc2)C(=O)N[C@@H](COCC(C)(C)O)C(=O)N(C)[C@@H](CC(C)C)C(=O)N[C@@H]([C@@H](C)O)C1=O` [pd430] ([Sar][NMeF]S(CH2CMe2OH)[NMeL]T[NPrGly][NMePhe(3-Cl)][NMeL]S(tBu)[NMeL]D-Piperidide; lactam N-11) the value was 1.3 ×10⁻⁶ cm/s; for `CCCCN1CC(=O)N(C)[C@@H](Cc2ccccc2)C(=O)N(C)[C@@H](CC(C)C)C(=O)N[C@@H](COC(C)(C)C)C(=O)N(C)[C@@H](CC(C)C)C(=O)N[C@H](C(=O)N2CCCCC2)CC(=O)N(C)CC(=O)N(C)[C@@H](Cc2cccc(Cl)c2)C(=O)N[C@@H](COC[C@@H](C)O)C(=O)N(C)[C@@H](CC(C)C)C(=O)N[C@@H]([C@@H](C)O)C1=O` [pd490] ([Sar][NMePhe(3-Cl)]S(Propyl(2R-OH))[NMeL]T[NBuGly][NMeF][NMeL]S(tBu)[NMeL]D-Piperidide; lactam N-11), 1 ×10⁻⁶ cm/s.

The data set is the same for the next values; noted with them: human, Caco-2, Caco-2 (cm/sec).
The compound `CC(C)C[C@@H]1NC(=O)[C@H](C)N(C)C(=O)C[C@@H](C(=O)N2CCCCC2)NC(=O)[C@H](CC(C)C)N(C)C(=O)CN(C)C(=O)[C@H]([C@@H](C)O)NC(=O)[C@H](Cc2ccccc2)N(C)C(=O)[C@H](Cc2ccccc2)N(C)C(=O)[C@H](CC(C)C)NC(=O)[C@H](Cc2ccccc2)N(C)C(=O)[C@H](CC(C)C)N(C)C1=O` [pd204] ([NMeA]L[NMeL][NMeF]L[NMeF][NMeF]T[Sar][NMeL]D-Piperidide; lactam N-11) gave an apparent permeability from apical to basolateral (Papp A→B) at 180 min of 2 ×10⁻⁶ cm/s.
As to `CC(C)C[C@H]1C(=O)N[C@@H](COC(C)(C)C)C(=O)N[C@@H]([C@@H](C)O)C(=O)N(C)[C@@H](Cc2ccccc2)C(=O)N[C@H](C(=O)N2CCCCC2)CC(=O)N[C@@H](C)C(=O)N(C)[C@@H](Cc2ccccc2)C(=O)N(C)[C@@H](C)C(=O)N(C)[C@@H](Cc2ccccc2)C(=O)N(C)[C@@H](CC(C)C)C(=O)N[C@@H](Cc2ccccc2)C(=O)N1C` [pd237] (A[NMeF][NMeA][NMeF][NMeL]F[NMeL]S(tBu)T[NMeF]D-Piperidide; lactam N-11), the Papp A→B at 180 min was found to be 0.089 ×10⁻⁶ cm/s.
Take `CC(C)C[C@H]1C(=O)N[C@@H](COC(C)(C)C)C(=O)N(C)[C@@H](Cc2ccccc2)C(=O)N(C)[C@@H](CC(C)C)C(=O)N[C@H](C(=O)N2CCCCC2)CC(=O)N2CCC[C@H]2C(=O)N(C)[C@@H](Cc2cccc(Cl)c2)C(=O)N[C@@H](C(C)C)C(=O)N(C)[C@@H](C(C)C)C(=O)N[C@@H]([C@@H](C)O)C(=O)N(C)CC(=O)N1C` [pd156] (P[NMePhe(3-Cl)]V[NMeV]T[Sar][NMeL]S(tBu)[NMeF][NMeL]D-Piperidide; lactam N-11): the Papp A→B at 180 min worked out at 2.9 ×10⁻⁶ cm/s.
